The source of these data is US12421252B2, “Spiro (isobenzofuranazetidine) compounds for the treatment of autoimmune disease” (Hoffmann-La Roche Inc., priority 2020, dated 2025).

In one series the target is T1, hERG channel (Homo sapiens, UniProt Q12809).
T1 construct: expressed in transfected cells
Put plainly: hERG channel inhibition assay (patch-clamp, CHO hERG cells). The series is classed as cell-based. The note with it: for IC50 / IC20: CHO hERG cells, whole-cell patch-clamp; for IC20: human, CHO cells stably expressing hERG; for hERG IC20/TLR7 IC50 / hERG IC20/TLR8 IC50 / hERG IC20/TLR9 IC50: safety ratio. On the procedure:
hERG Channel Inhibition Assay:
The hERG K+ channels were cloned in humans and stably expressed in a CHO (Chinese hamster ovary) cell line. CHOhERG cells were used for patch-clamp (voltage-clamp, whole-cell) experiments. Cells were stimulated by a voltage pattern to activate hERG channels and conduct IKhERG Currents (rapid delayed outward rectifier potassium current of the hERG channel). After the cells were stabilized for a few minutes, the amplitude and kinetics of IKhERG were recorded at a stimulation frequency of 0.1 Hz, (6 bpm). Thereafter, the test compound was added to the preparation at increasing concentrations. For each concentration, an attempt was made to reach a steady-state effect, usually, this was achieved within 3-10 min at which time the next highest concentration was applied. The amplitude and kinetics of IKhERG are recorded in each concentration of the drug which were compared to the control values (taken as 100%). (references: Redfern W S, Carlsson L, Davis A S, Lynch W G, MacKenzie I, Palethorpe S, Siegl P K, Strang I, Sullivan A T, Wallis R, Camm A J, Hammond T G. 2003; Relationships between preclinical cardiac electrophysiology, clinical QT interval prolongation and torsade de pointes for a broad range of drugs: evidence for a provisional safety margin in drug development. Cardiovasc. Res. 58:32-45, Sanguinetti M C, Tristani-Firouzi M. 2006; hERG potassium channels and cardiac arrhythmia. Nature 440:463-469, Webster R, Leishman D, Walker D. 2002; Towards a drug concentration effect relationship for QT prolongation and torsades de pointes. Curr. Opin. Drug Discov. Devel. 5:116-26).

The target of another series is T2, CYP2D6 (Homo sapiens, UniProt P10635).
T2 construct: tissue BD-Gentest 452117; host or cells: human liver microsomes
Briefly: CYP inhibition assay in human liver microsome, CYP2D6. The note with it: percentage inhibition, substrate Dextromethorphan 5 μM, <0: not or weak inhibitor. Format: in vitro ADME. The protocol: This is a high throughput screening assay used for assessment of reversible inhibition of CYP2C9, CYP2D6, and CYP3A4 activity of test compounds in human liver microsome (HLM) in early discovery stage.
Procedure 10 mM DMSO stock solutions of test compounds were diluted in DMSO to generate 2 mM intermediate stock solution. 250 nL of intermediate stock solution were transferred in duplicate into 3 separate 384 well microtitre plates (assay-ready plates). A mixture of HLM and each substrate was made up. 45 μL of HLM substrate mix was then transferred to each well of an assay ready plate and mixed. The negative (solvent) and positive controls (standard inhibitor for each CYP) were included in each assay ready plate. The assay ready plate was warmed to 37° C. in an incubator over 10 minutes. 5 μL pre-warmed NADPH regenerating system was added to each incubation well to start the reaction. Final incubation volume was 50 μL. The assay plate then was placed back in the 37° C. incubator. After incubation (10 minutes for CYP2D6) for 5 minutes, incubates were quenched by addition of 50 μL 100% acetonitrile containing internal standards (400 ng/mL 13C6-4′-OH-Diclofenac, 20 ng/mL D3-Dextrorphan and 20 ng/mL D4-1′OH-Midazolam). The supernatants were collected for RapidFire/MS/MS analysis.
RapidFire online solid phase extraction/sample injection system (Agilent) coupled with API4000 triple quadrupole mass spectrometer (AB Sciex) were used for sample analysis. The mobile phase composed of acetonitrile and water supplemented with 0.1% formic acid. A C4 solid phase extraction cartridge is used for sample separation. MS detection is achieved in positive ion MRM mode.
Data analysis Peak areas for substrate, metabolite and internal standard are determined using the RapidFire integrator software (version 3.6.12009.12296). Peak area ratios (PAR) of metabolite and internal standard (stable-labelled metabolite) are then calculated. The measurement window for each experiment is then defined: PAR (0% activity)=average PAR for all incubations containing concentrated inhibitor; Par (100% activity)=average PAR for all incubations containing no inhibitor (DMSO controls); % Activity (test inhibitor)=[PAR (test inhibitor)-PAR (0% activity)]/[PAR (100% activity)-PAR (0% activity)]; % Inhibition (test inhibitor)=100-% Activity (test inhibitor).

SMILES strings stand for the structures.

T2 sequence (P10635 whole entry): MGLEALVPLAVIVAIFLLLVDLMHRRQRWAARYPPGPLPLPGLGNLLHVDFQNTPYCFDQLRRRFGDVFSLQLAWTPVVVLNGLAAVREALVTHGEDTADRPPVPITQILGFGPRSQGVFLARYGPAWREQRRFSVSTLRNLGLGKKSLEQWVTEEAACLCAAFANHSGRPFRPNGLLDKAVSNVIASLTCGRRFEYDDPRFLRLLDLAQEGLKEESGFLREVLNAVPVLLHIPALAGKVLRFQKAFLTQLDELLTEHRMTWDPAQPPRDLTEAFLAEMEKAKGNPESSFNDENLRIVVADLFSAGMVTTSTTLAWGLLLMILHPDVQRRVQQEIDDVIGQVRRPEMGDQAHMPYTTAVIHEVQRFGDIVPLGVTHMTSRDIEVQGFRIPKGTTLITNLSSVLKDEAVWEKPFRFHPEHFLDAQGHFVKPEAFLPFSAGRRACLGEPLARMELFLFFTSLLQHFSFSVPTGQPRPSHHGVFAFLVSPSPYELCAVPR
T1 sequence (Q12809 whole entry): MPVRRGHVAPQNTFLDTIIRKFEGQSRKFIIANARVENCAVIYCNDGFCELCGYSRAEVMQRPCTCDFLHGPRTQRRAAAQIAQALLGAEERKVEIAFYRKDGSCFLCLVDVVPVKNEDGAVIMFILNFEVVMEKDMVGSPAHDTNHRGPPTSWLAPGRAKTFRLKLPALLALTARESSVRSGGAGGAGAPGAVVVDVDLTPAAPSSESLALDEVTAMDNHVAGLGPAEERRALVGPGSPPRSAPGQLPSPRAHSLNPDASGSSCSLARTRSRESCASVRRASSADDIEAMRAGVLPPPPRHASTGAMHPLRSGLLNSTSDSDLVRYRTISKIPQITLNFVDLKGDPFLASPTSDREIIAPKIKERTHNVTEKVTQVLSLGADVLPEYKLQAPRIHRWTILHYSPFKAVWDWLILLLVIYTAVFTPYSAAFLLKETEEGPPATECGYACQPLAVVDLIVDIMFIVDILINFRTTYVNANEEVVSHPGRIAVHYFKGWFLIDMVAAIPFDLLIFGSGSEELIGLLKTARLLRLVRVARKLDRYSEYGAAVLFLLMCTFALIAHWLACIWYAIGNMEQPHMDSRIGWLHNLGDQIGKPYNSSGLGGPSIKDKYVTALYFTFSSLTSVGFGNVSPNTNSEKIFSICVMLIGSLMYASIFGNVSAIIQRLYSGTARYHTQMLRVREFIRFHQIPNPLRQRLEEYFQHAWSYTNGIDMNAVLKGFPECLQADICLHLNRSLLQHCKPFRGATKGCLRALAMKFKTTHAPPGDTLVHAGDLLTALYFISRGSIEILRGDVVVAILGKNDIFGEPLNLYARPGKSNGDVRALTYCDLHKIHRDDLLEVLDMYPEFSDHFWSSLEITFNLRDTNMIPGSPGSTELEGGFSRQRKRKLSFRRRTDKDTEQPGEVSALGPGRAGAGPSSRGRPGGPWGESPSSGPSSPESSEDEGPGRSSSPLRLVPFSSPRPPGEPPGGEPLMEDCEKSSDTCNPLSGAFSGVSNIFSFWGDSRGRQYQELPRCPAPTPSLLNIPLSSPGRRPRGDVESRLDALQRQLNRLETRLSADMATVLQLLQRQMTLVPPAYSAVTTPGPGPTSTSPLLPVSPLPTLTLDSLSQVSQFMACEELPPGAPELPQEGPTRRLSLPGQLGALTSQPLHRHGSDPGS

Consider `C[C@@H]1CN(c2ccc(C#N)n3ncc(F)c23)C[C@H](CN2CC3(C2)OCc2cc(N4CC5(CN(C)C5)C4)ccc23)O1` [Example 2, 3-fluoro-4-[(2R,6S)-2-methyl-6-[[6-(6-methyl-2,6-diazaspiro[3.3]heptan-2-yl)spiro[1H-isobenzofuran-3,3′-azetidine]-1′-yl]methyl]morpholin-4-yl]pyrazolo[1,5-a]pyridine-7-carbonitrile], for which, at hERG channel, the IC50 is greater than 20 µM, the IC20 was found to be 9.9 µM, the “hERG IC20/TLR7 IC50” value is reported as 990 and the “hERG IC20/TLR8 IC50” value was found to be 396. Besides, the “hERG IC20/TLR9 IC50” value on hERG channel turned out to be 220.
On to `[2H]c1ccc2c(N3C[C@H](CN4CC5(C4)OCc4cc(N6CC(N)C6)cnc45)O[C@H](C)C3)ccc(C#N)c2n1` [Example 20, 5-[(2S,6R)-2-[[3-(3-aminoazetidin-1-yl)spiro[5H-furo[3,4-b]pyridine-7,3′-azetidine]-1′-yl]methyl]-6-methyl-morpholin-4-yl]-2-deuterio-quinoline-8-carbonitrile], for which the “CYP (%) 2D6” value on CYP2D6 is recorded as 13%.
Regarding `C[C@@H]1CN(c2ccc(C#N)n3ncc(F)c23)C[C@H](CN2CC3(C2)OCc2cc(N4CC(C)(N)C4)ncc23)O1` [Example 24, 4-[(2S,6R)-2-[[6-(3-amino-3-methyl-azetidin-1-yl)spiro[1H-furo[3,4-c]pyridine-3,3′-azetidine]-1′-yl]methyl]-6-methyl-morpholin-4-yl]-3-fluoro-pyrazolo[1,5-a]pyridine-7-carbonitrile], the “CYP (%) 2D6” value on CYP2D6 is given as 3.5%.
As for `[2H]c1ccc2c(N3C[C@H](CN4CC5(C4)OCc4cc(N6C[C@H]7NCCO[C@@H]7C6)ccc45)O[C@H](C)C3)ccc(C#N)c2n1` [Example 17, 5-[(2S,6R)-2-[[6-[(4aR,7aR)-3,4,4a,5,7,7a-hexahydro-2H-pyrrolo[3,4-b][1,4]oxazin-6-yl]spiro[1H-isobenzofuran-3,3′-azetidine]-1′-yl]methyl]-6-methyl-morpholin-4-yl]-2-deuterio-quinoline-8-carbonitrile], the “CYP (%) 2D6” value on CYP2D6 is reported as 18.5%.
As for `[2H]c1ccc2c(N3C[C@H](CN4CC5(C4)OCc4cc(N6CC(C)(N)C6)cnc45)O[C@H](C)C3)ccc(C#N)c2n1` [Example 21, 5-[(2S,6R)-2-[[3-(3-amino-3-methyl-azetidin-1-yl)spiro[5H-furo[3,4-b]pyridine-7,3′-azetidine]-1′-yl]methyl]-6-methyl-morpholin-4-yl]-2-deuterio-quinoline-8-carbonitrile], on hERG channel, the IC50 is greater than 20 µM, the IC20 was greater than 10 µM, the “hERG IC20/TLR7 IC50” value was greater than 1428 and the “hERG IC20/TLR8 IC50” value is recorded as greater than 588. The “hERG IC20/TLR9 IC50” value at hERG channel is given as greater than 181. Besides, at CYP2D6, the “CYP (%) 2D6” value was 5%.
`C[C@@H]1CN(c2ccc(C#N)n3nccc23)C[C@H](CN2CC3(C2)OCc2cc(N4CC5(CNCCO5)C4)ccc23)O1` [Example 7, 4-[(2R,6S)-2-methyl-6-[[6-(5-oxa-2,8-diazaspiro[3.5]nonan-2-yl)spiro[1H-isobenzofuran-3,3′-azetidine]-1′-yl]methyl]morpholin-4-yl]pyrazolo[1,5-a]pyridine-7-carbonitrile]: on CYP2D6, the “CYP (%) 2D6” value is −2%.
